Our source for the melting point values is a melting point compilation (Tetko et al.; mined from patent text by program, amines drawn as free bases though some values may be those of a salt).

A word on the melting point: it is the temperature of the solid-liquid transition. For the compound `Cc1ccc(C(F)(F)c2ccc(C3CCCN4CCS(=O)(=O)N=C34)cc2)cc1` (stereo not given), the melting point fell in the range of 190 to 191 °C. To `CCOC(=O)C(C(=O)OCC)c1n[nH]c(C)c1[N+](=O)[O-]` belongs 100 to 102 °C; to `CCOC(=O)CCc1cn(-c2ccc(Br)cn2)nc1C(C)(C)C`, 94 to 95 °C; to `COCC(C)NC1=NS(=O)(=O)c2cnccc2N1` (stereo not given), 174 to 178 °C. The value for `CCCNC(=O)c1cccc(-c2nc(=O)c3ccccc3s2)n1` was 180 to 181 °C; that for `O=C(O)C(Cl)Cc1ccccc1[N+](=O)[O-]` (stereo not given) was 108 to 109 °C; that for `FC(F)(F)c1cnc2nc1Nc1cccc(c1)/C=C\c1cccc(c1)N2` was 167 to 169 °C. To `Cc1c(CCCCCCCCC(=O)O)cccc1C(=O)c1ccc(Cl)cc1` belongs 64 °C; to `O=C(O)c1ccc(C(F)(F)F)nc1C=CCCl`, 137 to 138 °C. `Brc1ccccc1OCc1ccc2ccccc2n1` registered a melting point of 115 to 117 °C. Turning to `COC(=O)C1=C(COCCn2c(C)nc(C)c2C)Nc2[nH]c(N)nc(=O)c2C1c1ccccc1Cl` (stereo not given), the melting point was 225 to 227 °C.

`CS(=O)(=O)c1ccc(-c2cc(O)sc2-c2ccc(F)cc2)cc1` yielded a melting point of 60 °C. To `O=C(O)C1C2CNCC21` (stereo not given) belongs 101 to 102 °C; to `CC(C)COc1ccc(Br)cc1OCC(C)C`, 47 °C. The value for `COc1cc2c(cc1OCc1ccccc1)CCN(C(=O)c1ccc(C#N)cc1)C2=O` was 158 to 159 °C; that for `CN1C(=O)[C@@H](CN2CCCCC2)C[C@H]1c1ccc(Br)cc1` was 55 to 58 °C. The value for `CC(CN1CCCC1)N1c2ccccc2Sc2ccc(C(=O)NCC3CCCCC3)cc21` (racemic) was 120 °C; that for `CC(C)(C)c1cc(N=Nc2ccc(Cl)cc2Cl)c(O)c(C(C)(C)C)c1` was 164 to 168 °C; that for `Cn1c2ccccc2c2ccc3c(c21)C(=O)OC3=O` was greater than 300 °C. `COc1cc(Nc2c(C#N)cnc3cc4cc(OCCn5nccn5)c(OC)cc4cc23)c(Cl)cc1Cl` had a melting point of 285 to 287 °C. The value for `C#CCN(C(CCn1c(=O)[nH]c(C)c(C)c1=O)C(=O)NO)S(=O)(=O)c1ccc(Oc2ccccc2)cc1` (stereo not given) was 180 to 181 °C. To `CN(C(=O)CN1C(=O)C(NC(=O)Nc2cccc(N)c2)N=C(CN2CCOCC2)c2ccccc21)c1ccccc1` (stereo not given) belongs 158 to 160 °C; to `COc1c(C)c(C)c(O)c(C)c1CN(C)CCOc1cc(C)ccc1C(C)C`, 75 to 77 °C. Regarding `Cc1ccc(Cl)c(Nc2ccccc2-c2n[nH]c(=S)o2)c1Cl`, the melting point was in the range of 257 to 259 °C.

Regarding `COC(=O)CN1C(=O)CC1SCc1ccc(OC)cc1` (stereo not given), the melting point lay within 45 to 46 °C. The value for `CCOC(=O)c1ncn2c1c(S)nc1ccccc12` was 251 to 253 °C; that for `N=C(NO)c1cnc(Cl)c(Cl)c1` was 182 to 184 °C. To `NP(N)(=S)NC1CCCCC1` belongs 148 to 150 °C; to `Nc1ccc(-c2cccs2)c(C(=O)Nc2ccc3c(c2)CCC3)c1`, 62 to 67 °C; to `Cc1cccc(C(=O)c2ccc(Cl)cc2)c1O`, 55 to 58 °C.

Compound `Cn1c(Sc2ccc(C(=O)OCC(C)(C)C)c(Cl)c2)n[nH]c1=O` showed a melting point of 138 °C. To `CCCCc1oc2ccccc2c1-c1ncc(-c2ccc3c(Br)c(O)ccc3c2)o1` belongs 172 to 174 °C; to `O=C(O)c1cnc2ccc(C3CCCCC3)cc2c1O`, 263 to 265 °C; to `O=C(Nc1cccnc1)N1CCN(c2nccc(-c3cccc(F)c3)n2)CC1`, 210 to 211 °C. The compound `Nc1nc2c(c(Nc3cccc(Cl)c3)n1)-c1ccccc1C2` displayed a melting point of 224 to 225 °C. For the compound `COc1cc(O)cc(C)c1C=CC(=O)c1ccc(O)cc1`, the melting point was in the range of 197 to 198 °C.

Regarding `CCc1nc2c(C)c(S(=O)(=O)N(C)C)c(C)nc2[nH]1`, the melting point is 179 to 182 °C.

The compound `O=c1c2cnc(N3CCCCC3)nc2sn1CCc1ccccn1` came in with a melting point of 109 to 110 °C. The compound `Nc1cc(C(=O)O)cc(S(N)(=O)=O)c1NCCc1ccccc1` gave a melting point of 194 to 195 °C.

As for `O=S(=O)(Nc1cccc(Cl)c1)c1cc(S(=O)(=O)Nc2cccc(Cl)c2)c2cc(O)ccc2c1`, the melting point is 206 to 208 °C. For `O=C1Nc2cccc(-c3ccc(C(=O)O)cc3)c2/C1=C/c1ccc[nH]1`, the melting point lay in the range of 315 to 317 °C.

The compound `O=C(O)c1ccc(Sc2ccc(O)cc2)cc1` displayed a melting point of 196 to 200 °C. In turn, `CC1(c2ccc([N+](=O)[O-])cc2)Cc2cc(O)c(Cl)c(Cl)c2C1=O` (stereo not given) returned a melting point of 268 to 270 °C. To `CC(C)c1nc(Cc2ccccc2)c2c(c1O)COC2` belongs 232 to 233 °C; to `CCOC(C#CC(=NC(c1ccccc1)(c1ccccc1)c1ccccc1)C(F)F)OCC`, 173 to 175 °C. The value for `COc1c(F)c(F)c([N+](=O)[O-])c2c(=O)c(C(=O)O)cn(C3CC3)c12` was 216 to 221 °C; that for `Cc1[nH]c(=O)ccc1C(=O)c1ccc(C#N)cc1` was 172 to 175 °C.

As to `CN1CCCC(C(=O)OC2c3ccccc3C(=O)N2c2ccc3ccc(Cl)nc3n2)C1` (stereo not given), the melting point amounted to 211 °C. To `NC(=O)c1cccc(OCc2ccccc2)c1` belongs 136 to 140 °C; to `CCc1c(-c2ccc(OCc3ccccc3)cc2)c2cc(CO)c3cccc1n32`, 148 to 150 °C; to `Clc1cc(-c2c(-c3ccccc3)nn3ccccc23)ccn1`, 167 to 168 °C.

Consider `c1cc(CC2CCNC3CCCN23)ccc1CC1CCNC2CCCN12` (stereo not given), for which the melting point came to 110 °C. On to `O=C(NC[C@H]1CN(c2cc(F)c(N3CCC(n4ncnn4)CC3)c(F)c2)C(=O)O1)C(Cl)Cl`, for which the melting point lay within 160 to 162 °C. With `Cc1nc2ccc(F)cc2c(=O)n1C1CCC(=O)NC1=O` (stereo not given), the melting point lay in the range of 273 to 275 °C. To `CCCCOCCOc1ccc(-c2cnc(N3CC(C)C(C)C3)c(/C=C(\C)C(=O)O)c2)cc1` (stereo not given) belongs 90 to 92 °C.

Compound `COc1ccc(CCNCCCOc2ccccc2NC(=O)c2cccc3[nH]ccc23)cc1OC` displayed a melting point of 182 °C. The value for `CC1(C)NC(=O)N(c2ccc(C#N)c(C(F)(F)F)c2)C1=O` was 210 °C. The value for `CCOC(=O)CCC(=O)c1ccc(CCNS(=O)(=O)c2cccc(Cl)c2)cc1` was 64 to 66 °C; that for `O=C(O)Cn1cc(Cl)cnc1=O` was 186 to 188 °C; that for `N#Cc1cc2c(cn1)CCCC2` was 56 to 59 °C. In turn, `CC12C=CC(=O)C(N=C=S)=C1C=CC1C2CCC2(C)C(=O)CCC12` (stereo not given) came in with a melting point of 146 to 166 °C. To `Cc1ccccc1-c1cccc(F)c1C(=O)NCCCl` belongs 78 to 81 °C; to `Cc1cc(-c2cc(C(F)(F)F)nn2-c2ccc(S(N)(=O)=O)c(Cl)c2)ccc1-c1cscn1`, 113 to 115 °C. `CCNc1cc(Cl)nc(C#N)c1N` had a melting point of 150 °C. Regarding `CCC(CCOC)n1cc(Cl)nc(N2CCc3cc(Cl)cc(Cl)c32)c1=O` (stereo not given), the melting point is 95 to 97 °C.
